The results in this text go back to ChEMBL document CHEMBL3046816, “Development of a Novel Insecticide, Dinotefuran” (J Pestic Sci, 2005).

In brackets after ≈: the same amount, converted by molar mass.

A short description of data set [1]: Acute toxicity in Anas platyrhynchos (mallard duck) dosed with diet. The conditions noted are these: in vivo, po.
A short description of data set [2]: Octanol-water partition coefficient, log Pow of the compound.
Data set [3] can be described thus: Toxicity in female po dosed Mus musculus (mouse). The conditions noted are these: in vivo.
Data set [4] can be described thus: Toxicity in male po dosed Mus musculus (mouse). The conditions noted are these: in vivo.
Data set [5] can be described thus: Solubility in water at pH 7. As to conditions: buffer.

`CN/C(=N/CC1CCOC1)N[N+](=O)[O-]` (stereo not given) [DINOTEFURAN]: the values for the LD50 in data set [1], in data set [3] and in data set [4] were greater than 1300 mg/kg, 2280 mg/kg and 2450 mg/kg, respectively. Moreover, the log partition coefficient (logP) (in general, the decadic logarithm of the partition coefficient of the neutral form, usually between octanol and water) in data set [2] is -0.549. The amount in solution in data set [5] (solubility) came to 40 mg/mL (≈ 198 mM).
